In patent US6906077B1, “Use of neurotrophic factor stimulators for the treatment of ophthalmic neurodegenerative diseases” (Alcon Manufacturing, Ltd., priority 1998, dated 2005):

What was measured:
[1] = test system: RGCs (retinal ganglion cells); experiment: Retinal Ganglion Cell Survival Assay (serum deprivation); assay type: cell-based, Neonatal, Sprague-Dawley rats; conditions: cultured without serum; Propentofylline 100 μM; 3 days after serum removal; survival with serum = 100%; mean and SEM (n = 6)
Text: Retinal Ganglion Cell Survival Assay:
Techniques for the isolation and culture of RGCs were adapted from those reported by Takahashi N. et al., Rat retinal ganglion cells in culture. Exp. Eye Res. volume 53, pages 565-572 (1991). […] Two to 4 days later, retina cells were dissociated. Cultured RGCs were identified by sufficient Di-I fluorescence to be observed visually using a fluorescent microscope.
Neonatal, Sprague-Dawley rats, 2-5 days old, were anesthetized by hypothermia, after which, a 2 mm midline opening was made in the scalp just caudal to the traverse sinus. The tip of the injection needle (30 gauge) was inserted 6 mm below the top of the skull, and a 5 μl Di-I solution, containing 3 mg/ml Di-I (1,1′-dioctadecyl-3,3,3′,3′-tetramethylindo-carbocyanine perchlorate (Molecular Probes, Eugene, Oreg.) in 90% ethanol and 10% dimethylsulfoxide, was injected. The wound was then covered with a drop of Flexible Collodion (Amend Drug & Chemical Co., Irvington, N.J.). Rats were returned to their mother after warming and recovery from anesthesia.
Two to 4 days after Di-I injection, rats were anesthetized by hypothermia and sacrificed by decapitation. Their eyes were enucleated and placed in Dulbecco's modified Eagle's medium: Nutrient mixture F12 (1:1; DMEM/F12, Gibco Co., Grand Island, N.Y.). The retina from each eye was detached and isolated. […]

axotomized RGCs = conditions: single intravitreal injection of 5 μg on Day 0; one week after; untreated retinas lost nearly half of the axotomized RGCs; cited from earlier work

| Molecule | RGC Survival (%) [1] [%] | survival of axotomized RGCs (axotomized RGCs) |
| --- | --- | --- |
| CCCn1cnc2c1c(=O)n(CCCCC(C)=O)c(=O)n2C [Propentofylline, propentofylline] | 96.9 ± 4.8 |  |
| brain-derived neurotrophic factor (protein, UniProt P23560 19-247, looked up) Neurotrophic factor BDNF …: APMKEANIRGQGGLAYPGVRTHGTLESVNGPKAGSRGLTSLADTFEHVIEELLDEDQKVRPNEENNKDADLYTSRVMLSSQVPLEPPLLFLLEEYKNYLDAANMSMRVRRHSDPARRGELSVCDSISEWVTAADKKTAVDMSGGTVTVLEKVPVSKGQLKQYFYETKCNPMGYTKEGCRGIDKRHWNSQCRTTQSYVRALTMDSKKRIGWRFIRIDTSCVCTLTIKRGR |  | virtually all RGCs were present |
